Test results: patent US8088761B2, “Enzyme inhibitors” (Cancer Research Technology Limited, priority 2005, dated 2012)

Legend:
Aurora-A [1] = target: T1, Aurora-A (Homo sapiens, UniProt O14965); assay: Flashplate Aurora A enzyme inhibition assay; assay type: biochemical; conditions: Flashplate assay; IC50 range; read-out: Aurora-A inhibition
T1 sequence (O14965 1-403): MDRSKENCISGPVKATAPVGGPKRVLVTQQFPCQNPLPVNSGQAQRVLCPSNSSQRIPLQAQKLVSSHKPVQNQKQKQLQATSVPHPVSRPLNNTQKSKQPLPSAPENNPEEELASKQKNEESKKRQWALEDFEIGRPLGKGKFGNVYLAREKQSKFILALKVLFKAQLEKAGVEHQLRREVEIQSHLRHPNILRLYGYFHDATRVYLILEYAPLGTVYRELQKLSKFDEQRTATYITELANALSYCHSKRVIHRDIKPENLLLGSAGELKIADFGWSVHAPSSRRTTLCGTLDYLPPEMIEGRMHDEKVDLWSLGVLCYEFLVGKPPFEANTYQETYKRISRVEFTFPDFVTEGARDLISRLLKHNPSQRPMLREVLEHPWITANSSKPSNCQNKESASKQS
How it was run: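 This is a radiometric Flashplate format: plates were precoated with DTT, and compound (in 2% DMSO) was mixed with kinase buffer (pH 7.5 Tris, MgCl2, NaCl) containing 1 mM MBP, 20 μM ATP and ^33P-ATP. The reaction was started with 250 ng Aurora-A per well and incubated 2 h at RT. It was then stopped by 10 mM sodium pyrophosphate washing, and plates were scintillation-counted.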

HCT116 cells = assay: Cell viability assay (MTT) in HCT116 cell line; assay type: cell-based; conditions: Homo sapiens, HCT-116, 72 hrs, IC50 range, read-out: HCT116 cell growth inhibition
How it was run: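 MTT read-out (4 hrs, 37 °C, DMSO extraction) following 72 hrs of treatment with 0-50 μM Aurora inhibitor. HCT116 cells were plated a day earlier and tested in triplicate; IC50 derived from the curve.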

Aurora-C [2] = target: T2, Aurora-C (Homo sapiens, UniProt Q9UQB9); assay: Flashplate assay for Aurora-C inhibitors; assay type: biochemical; conditions: read-out: IC50 against Aurora-C
T2 sequence (Q9UQB9 1-309): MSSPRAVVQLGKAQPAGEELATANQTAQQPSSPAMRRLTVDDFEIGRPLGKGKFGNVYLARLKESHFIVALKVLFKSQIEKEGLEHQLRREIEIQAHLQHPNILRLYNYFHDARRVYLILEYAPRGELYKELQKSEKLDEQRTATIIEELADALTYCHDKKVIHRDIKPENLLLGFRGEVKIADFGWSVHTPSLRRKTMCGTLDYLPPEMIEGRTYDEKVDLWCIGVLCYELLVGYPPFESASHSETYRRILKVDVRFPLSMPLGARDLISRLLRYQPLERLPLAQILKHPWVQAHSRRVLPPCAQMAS
Method: (§1) On this assay 384-well Basic Flashplate® (SMP400E, PerkinElmer) as solid assay platform was used. The plates were coated overnight at 4° C. with […] at 100 μg/ml in PBS buffer and used after being washed twice with PBS. 5 μl of compound in 2% DMSO was added to each well followed by 15 μl master mix of kinase buffer (50 mM Tris pH 7.5, 10 mM NaCl, 2.5 mM MgCl2, 1 mM […], 20 μM ATP, and 0.025 μCi/μl ^33P-ATP). Finally, 250 ng per well of Aurora-A enzyme was added. The plate was shaken for approximately 2 min on a flat-bed plate shaker (Wellmix, Denley, UK) and incubated for 2 hours at room temperature. The reaction was stopped by washing the plate twice on a 16-pin wash (ELX50 BioTek Instruments Ltd., Northstar, Bedford, UK) with 10 mM sodium pyrophosphate. The plate was then read on a TopCount-NX™ (PerkinElmer Life Sciences UK Ltd., Hounslow, UK).
(§2) Flashplate® Assay for Identification and Evaluation of Aurora-B and Aurora-C Inhibitors
(§3) For the determination of the inhibitory activity against Aurora-B or Aurora-C, the same conditions were followed in the assay using Aurora-B or Aurora-C enzymes.

Aurora-A [3] = target: T1, Aurora-A; assay: Filterplate assay for Aurora-A inhibitors; assay type: biochemical; conditions: read-out: IC50 against Aurora-A
Method: Filterplate Assay for Identification and Evaluation of Aurora-A Inhibitors
(§4) 40 μl master mix of kinase buffer (50 mM Tris pH 7.5, 10 mM NaCl, 2.5 mM MgCL2, 1 mM DTT, 20 μM ATP, 0.025 μCi/μl ^33P-ATP, and 100 μg/ml MBP was added to a 96-well plate followed by addition of 250 ng of Aurora-A enzyme per well. The plate was shaken for approximately 2 min on a flat-bed plate shaker (Wellmix, Denley, UK) and incubated for 2 hours at room temperature. The reaction was stopped by the addition of 30 μl of 2% orthophosphoric acid. The reaction mixture was then transferred and filtered on the 96-well Multi-Screening Filter Plate (MATAH0P00, MILLIPORE), pre-treated with 50 μl per well of 0.5% orthophosphoric acid. The plate was washed twice with 200 μl of 0.5% orthophosphoric acid and vacuum-dried. 25 μl of scintillant (Microscint™20, PerkinElmer) per well was added and the plate was shaken for 10 min. Finally, the plate was re-sealed with TopSealA and the signal from the filter-bound component was read on TopCount-NXT™ (PerkinElmer Life Sciences UK Ltd., Hounslow, UK).

Aurora-B [4] = target: T3, Aurora-B (Homo sapiens, UniProt Q96GD4); assay: Flashplate assay for Aurora-B inhibitors; assay type: biochemical; conditions: read-out: IC50 against Aurora-B
Method: as §1, §2, §3

Aurora-B [5] = target: T3, Aurora-B; assay: Filterplate assay for Aurora-B inhibitors; assay type: biochemical; conditions: read-out: IC50 range in respect of Aurora-B
Method: as §4
(§5) Filterplate Assay for Identification and Evaluation of Aurora-B and Aurora-C Inhibitors
as §3

Aurora-C [6] = target: T2, Aurora-C; assay: Filterplate assay for Aurora-C inhibitors; assay type: biochemical; conditions: read-out: IC50 range in respect of Aurora-C
Method: as §4, §5, §3

T3 sequence (Q96GD4 whole entry): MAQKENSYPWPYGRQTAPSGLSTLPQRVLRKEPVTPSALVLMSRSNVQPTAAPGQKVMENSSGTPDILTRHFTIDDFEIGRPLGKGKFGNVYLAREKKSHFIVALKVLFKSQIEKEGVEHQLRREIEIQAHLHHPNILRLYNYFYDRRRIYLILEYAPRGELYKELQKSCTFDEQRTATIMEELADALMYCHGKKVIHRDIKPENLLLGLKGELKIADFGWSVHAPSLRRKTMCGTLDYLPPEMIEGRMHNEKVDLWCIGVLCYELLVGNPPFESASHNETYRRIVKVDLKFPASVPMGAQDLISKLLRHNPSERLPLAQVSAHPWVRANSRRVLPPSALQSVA

| Structure (SMILES) | IC50 (Aurora-A [1]) | IC50 (HCT116 cells) | IC50 (Aurora-C [2]) | IC50 (Aurora-A [3]) | IC50 (Aurora-B [4]) | IC50 (Aurora-B [5]) | IC50 (Aurora-C [6]) |
| --- | --- | --- | --- | --- | --- | --- | --- |
| CN(C)c1ccc(-c2nc3c(N4CCN(CC(=O)Nc5nccs5)CC4)c(Cl)cnc3[nH]2)cc1 [Example 1, 2-{4-[6-Chloro-2-(4-dimethylamino-phenyl)-3H-imidazo[4,5-b]pyridin-7-yl]-piperazin-1-yl}-N-thiazol-2-yl-acetamide] | < 500 nM | < 500 nM | 362 nM | 80 nM | 110 nM |  |  |
| CN(C)c1ccc(-c2nc3c(N4CCN(CC(=O)Nc5nccs5)CC4)c(Br)cnc3[nH]2)cc1 [Example 2, 2-{4-[6-Bromo-2-(4-dimethylamino-phenyl)-3H-imidazo[4,5-b]pyridin-7-yl]-piperazin-1-yl}-N-thiazol-2-yl-acetamide] | < 500 nM | < 500 nM | 530 nM | 70 nM | 410 nM |  |  |
| Cc1cc(CN2CCN(c3c(Br)cnc4[nH]c(-c5ccc(CN6CCOCC6)cc5)nc34)CC2)no1 [Example 75, 6-Bromo-7-[4-(5-methyl-isoxazol-3-ylmethyl)-piperazin-1-yl]-2-(4-morpholin-4-ylmethyl-phenyl)-3H-imidazo[4,5-b]pyridine] | < 500 nM | < 500 nM |  |  |  | < 500 nM | < 500 nM |
